The results in this text go back to patent US8227636B2, “Histone deacetylase inhibitor prodrugs” (Merck HDAC Research, LLC, priority 2004, dated 2012).

The structures appear in SMILES notation.

Test [1] deals with T1, histone deacetylase, subtype 1 (HDAC1) (Homo sapiens, UniProt Q13547).
T1 construct: Flag; made in house
As to the kind of experiment: HDAC1-Flag assay (in vitro deacetylation assay). In kind it is biochemical. The settings on record: for inhibition at 10 µM: 10 μM compound, read-out: HDAC1 % INH 10 μM; for inhibition at 100 µM: 100 μM compound, read-out: HDAC1 % INH 100 μM; for IC50: epitope-tagged human HDAC1 complex, substrate at Km, fluorogenic acetylated lysine substrate, read-out: HDAC1 IC50 Ave. How it is done: Novel compounds were tested for their ability to inhibit histone deacetylase, subtype 1 (HDAC1) using an in vitro deacetylation assay. The enzyme source for this assay was an epitope-tagged human HDAC1 complex immuno-purified from stably expressing mammalian cells. The substrate consisted of a commercial product containing an acetylated lysine side chain (BIOMOL Research Laboratories, Inc., Plymouth Meeting, Pa.). Upon deacetylation of the substrate by incubation with the purified HDAC1 complex, a fluorophore is produced that is directly proportional to the level of deacetylation.

Test [2] concerns murine erythroleukemia cell line SC9. The test is described as follows: MTS assay (Cell Titer 96 Aqueous One Solution Cell Proliferation Assay). In kind it is cell-based. The settings on record: Mus musculus; SC9 cells, 48 hours incubation; unit inferred. How it is done: The novel compounds of the present invention were tested for their ability to inhibit proliferation of the murine erythroleukemia cell line SC9. The MTS assay, also referred to as the Cell Titer 96 Aqueous One Solution Cell Proliferation Assay, is a colorimetric method for determining the number of viable cells in proliferation, cytotoxicity, or chemosensitivity assays. […] Murine erythroleukemia cells (SC-9) were incubated with vehicle or increasing concentrations of compound for 48 hours.
A general note: Tetrazolium assays rely on reduction of a dye to a coloured formazan, in cell work by metabolically active cells.

T1 sequence (Q13547 whole entry): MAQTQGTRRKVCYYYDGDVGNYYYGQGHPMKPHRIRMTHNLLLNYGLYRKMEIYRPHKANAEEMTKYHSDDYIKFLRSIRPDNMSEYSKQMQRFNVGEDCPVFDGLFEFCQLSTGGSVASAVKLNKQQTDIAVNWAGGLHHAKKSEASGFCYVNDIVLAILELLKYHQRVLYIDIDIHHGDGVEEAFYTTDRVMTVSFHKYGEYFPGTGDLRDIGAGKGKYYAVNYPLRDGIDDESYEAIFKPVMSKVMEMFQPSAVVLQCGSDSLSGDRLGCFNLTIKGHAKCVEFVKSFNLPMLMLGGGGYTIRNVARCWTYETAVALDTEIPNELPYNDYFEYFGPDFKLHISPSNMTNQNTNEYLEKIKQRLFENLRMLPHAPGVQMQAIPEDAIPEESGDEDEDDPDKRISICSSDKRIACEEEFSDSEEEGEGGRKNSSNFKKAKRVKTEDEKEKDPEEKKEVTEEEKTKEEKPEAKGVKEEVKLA

A word on the IC50: it is the concentration needed to halve the response being measured. As to `O=C(CCCCCCC(=O)Nc1ccccc1)NOC(=O)CCCCCCC(=O)Nc1ccccc1` [I, Octanedioic acid phenylamide(7-phenylcarbamoyl-heptanoyloxy)-amide], in test [1], the inhibition at 10 µM stood at 45%, the inhibition at 100 µM is 79% and the IC50 came out at 51900 nM. This compound also returned a half-inhibitory concentration (IC50) in test [2] of 785 ± 4.9 nM.
In the case of `CC(=O)ONC(=O)CCCCCCC(=O)Nc1ccccc1` [II, Octanedioic acid acetoxy-amide phenylamide], in test [1], the inhibition at 10 µM was -17% and the inhibition at 100 µM turned out to be 2%. This compound also gave an IC50 in test [2] of 246 ± 78.4 nM.
Take `O=C(CCCCCCC(=O)Nc1ccccc1)NOC(=O)c1cccnc1` [III, Octanedioic acid phenylamide(pyridine-3-carbonyloxy)-amide]: in test [1], the inhibition at 10 µM is 87%, the inhibition at 100 µM amounted to 97% and the IC50 was found to be 582 ± 312 nM. For the same compound, the IC50 in test [2] is 252 ± 56.5 nM.
For the compound `CCCCc1ccc(C(=O)ONC(=O)CCCCCCC(=O)Nc2ccccc2)cc1` [IV, Octanedioic acid (4-butyl-benzoyloxy)-amide phenylamide], in test [1], the inhibition at 10 µM was 10% and the inhibition at 100 µM stood at 50%. Moreover, inhibition in test [2] was half-maximal at 1760 nM (IC50).
Regarding `O=C(CCCCCCC(=O)Nc1ccccc1)NOC(=O)c1ccccc1` [IX, Octanedioic acid benzoyloxy-amide phenylamide], in test [1], the inhibition at 10 µM came to 20% and the inhibition at 100 µM turned out to be 60%. The same compound gave an IC50 in test [2] of 1200 nM.
`O=C(CCCCCCC(=O)Nc1ccccc1)NOC(=O)CCc1ccccc1` [V, Octanedioic acid phenylamide(3-phenyl-propionyloxy)-amide]: in test [1], the inhibition at 10 µM was determined as 64%, the inhibition at 100 µM was 90% and the IC50 worked out at 1680 ± 1200 nM. Moreover, in test [2], inhibition was half-maximal at 491 ± 327 nM (IC50).
Turning to `O=C(CCCCCCC(=O)Nc1ccccc1)NOC(=O)CCCc1ccccc1` [VI, Octanedioic acid phenylamide(4-phenyl-butyryloxy)-amide], in test [1], the inhibition at 10 µM is 27% and the inhibition at 100 µM came to 62%. In test [2], this compound returned an IC50 of 1540 nM.
For `O=C(CCCCCCC(=O)Nc1ccccc1)NOC(=O)/C=C/c1ccccc1` [VII, Octanedioic acid (3-phenyl-acryloyloxy)-amide phenylamide], in that order: 26%, 45% and 648 nM.
The like results for `O=C(CCCCCCC(=O)Nc1ccccc1)NOC(=O)c1ccc(-c2ccccc2)cc1` [VIII, Octanedioic acid (biphenyl-4-carbonyloxy)-amide phenylamide] were, in that order, 94%, 99% and 1380 nM.
The like results for `O=C(CCCCCCC(=O)Nc1ccccc1)NOC(=O)c1ccc2ccccc2c1` [X, Octanedioic acid (naphthalene-2-carbonyloxy)-amide phenylamide] were, in that order, 9%, 22% and 1790 nM.
As for `O=C(CCCCCCC(=O)Nc1ccccc1)NOC(=O)c1cccc2ccccc12` [XI, Octanedioic acid (naphthalene-1-carbonyloxy)-amide phenylamide], in test [1], the inhibition at 10 µM amounted to 5% and the inhibition at 100 µM amounted to 5%. In test [2], this compound displayed an IC50 of 5220 nM.
With `COc1cccc(C(=O)ONC(=O)CCCCCCC(=O)Nc2ccccc2)c1` [XII, Octanedioic acid (3-methoxy-benzoyloxy)-amide phenylamide], in test [1], the inhibition at 10 µM worked out at 20% and the inhibition at 100 µM was determined as 43%. In test [2], this compound displayed an IC50 of 494 nM.
On to `COc1ccc(C(=O)ONC(=O)CCCCCCC(=O)Nc2ccccc2)cc1` [XIII, Octanedioic acid (4-methoxy-benzoyloxy)-amide phenylamide], for which, in test [1], the inhibition at 10 µM is 21% and the inhibition at 100 µM is 65%. The compound also displayed a 50% inhibitory concentration (IC50) in test [2] of 748 nM.
For `Cc1ccc(C(=O)ONC(=O)CCCCCCC(=O)Nc2ccccc2)cc1` [XIV, Octanedioic acid (4-methyl-benzoyloxy)-amide phenylamide], in that order: 38%, 74% and 862 nM.
The like results for `CC(C)(C)OC(=O)N[C@@H](Cc1ccccc1)C(=O)ONC(=O)CCCCCCC(=O)Nc1ccccc1` [XIX, [1-Benzyl-2-oxo-2-(7-phenylcarbamoyl-heptanoylaminooxy)-ethyl]-carbamic acid tert-butyl ester] were, in that order, 87%, 96% and 446 nM.
For `COc1ccccc1C(=O)ONC(=O)CCCCCCC(=O)Nc1ccccc1` [XV, Octanedioic acid (2-methoxy-benzoyloxy)-amide phenylamide], in that order: 23%, 48% and 592 nM.
For `O=C(CCCCCCC(=O)Nc1ccccc1)NOC(=O)c1ccc(Cl)cc1` [XVI, Octanedioic acid (4-chloro-benzoyloxy)-amide phenylamide], in test [1], the inhibition at 10 µM was 24% and the inhibition at 100 µM is 36%. The compound also showed a half-inhibitory concentration (IC50) in test [2] of 434 nM.
The like results for `O=C(CCCCCCC(=O)Nc1ccccc1)NOC(=O)[C@H](Cc1ccccc1)NC(=O)OCc1ccccc1` [XVII, [1-Benzyl-2-oxo-2-(7-phenylcarbamoyl-heptanoylaminooxy)-ethyl]-carbamic acid benzyl ester] were, in that order, 94%, 99% and 753 nM.
The like results for `O=C(CCCCCCC(=O)Nc1ccccc1)NOC(=O)[C@@H](Cc1ccccc1)NC(=O)OCc1ccccc1` [XVIII, [1-Benzyl-2-oxo-2-(7-phenylcarbamoyl-heptanoylaminooxy)-ethyl]-carbamic acid benzyl ester] were, in that order, 78%, 93% and 443 nM.
